The source of these data is ChEMBL document CHEMBL6096630, “Enhancing therapeutic efficacy in homologous recombination-proficient pancreatic cancer via the combination of PARP1-PROTAC and a BRD4 inhibitor” (Bioorg Med Chem, 2024).

The structures appear in SMILES notation. Calls of active or inactive are those of the source. The calls are words filed in the database; no cut-off is given here.

One series relates to BXPC-3. The series is described as follows: Synergistic antiproliferative activity against human BXPC-3 cells expressing wild-type BRCA assessed as combination index at 2:1 ratio of compound:JQ1 incubated for 5 days by CCK8 assay. The settings on record: time 5 day. The format is functional. On the technique in general: Formazan colour is commonly taken as a measure of viable cells.

Series [1] concerns PANC-1. Put plainly: Induction of DNA damage in human PANC-1 cells assessed as decrease in RAD51 level at 1 uM in presence of OL by Western blot analysis. The series is classed as functional, cell-based. Background: In western blotting, separated proteins are transferred to a membrane and probed.
Series [2] concerns PANC-1. The series is described as follows: Induction of cell cycle arrest in human PANC-1 cells assessed as accumulation at G0/G1 phase at 1 uM incubated for 24 hrs in presence of OL by PI staining based flow cytometry relative to control. The series is classed as functional. (Flow cytometry measures light scatter and fluorescence of single cells or particles in a stream.)
Series [3] deals with PANC-1. Put plainly: Induction of cell cycle arrest in human PANC-1 cells assessed as accumulation at G2/M phase at 1 uM incubated for 24 hrs in presence of OL by PI staining based flow cytometry. The format is functional.
The test system of series [4] is PANC-1. The series is described as follows: Induction of apoptosis in human PANC-1 cells assessed as early apoptotic cells at 0.12 uM incubated for 48 hrs by Annexin V-FITC/PI staining based flow cytometry (reference value: 1.41 %). The series is classed as functional.
Series [5] relates to PANC-1. Put plainly: Induction of apoptosis in human PANC-1 cells assessed as viable cells at 0.25 uM incubated for 48 hrs by Annexin V-FITC/PI staining based flow cytometry (reference value: 91.64 %). The format is functional. The settings on record: read-out: Activity.
For series [6], the system named is PANC-1. The series is described as follows: Induction of apoptosis in human PANC-1 cells assessed as late apoptotic cells at 1 uM incubated for 48 hrs in presence of OL by Annexin V-FITC/PI staining based flow cytometry (reference value: 3.87 %). The series is classed as functional.
The subject of series [7] is PANC-1. Put plainly: Induction of apoptosis in human PANC-1 cells at 1 uM incubated for 48 hrs in presence of OL by Annexin V-FITC/PI staining based flow cytometry relative to control. The series is classed as functional.
Series [8] has as its system PANC-1. The series is described as follows: Antitumor activity against human PANC-1 cells xenografted in BALB/c mouse assessed as reduction in tumor growth at 20 mg/kg, ip for 4 weeks administered for 5 days consecutively and 2 days without treatment on every week. The format is functional, organism-based.
The test system of series [9] is PANC-1. The series is described as follows: Antitumor activity against human PANC-1 cells xenografted in BALB/c mouse assessed as inhibition of tumor volume at 20 mg/kg, ip for 4 weeks administered for 5 days consecutively and 2 days without treatment on every week in presence of OL. The format is functional, organism-based.
The nature of series [10]: Toxicity in BALB/c mouse xenografted with human PANC-1 cells assessed as body weight loss at 20 mg/kg, ip for 4 weeks administered for 5 days consecutively and 2 days without treatment on every week in presence of OL. The series is classed as organism-based. The settings on record: in vivo, 672 h.
Series [11] can be described thus: Toxicity in BALB/c mouse xenografted with human PANC-1 cells assessed as pathological changes in lung at 20 mg/kg, ip for 4 weeks administered for 5 days consecutively and 2 days without treatment on every week by H and E staining based analysis. The format is organism-based. The settings on record: in vivo, 672 h.
Series [12] in a line: Toxicity in BALB/c mouse xenografted with human PANC-1 cells assessed as pathological changes in lung at 20 mg/kg, ip for 4 weeks administered for 5 days consecutively and 2 days without treatment on every week in presence of OL by H and E staining based analysis. The format is organism-based. The settings on record: in vivo, 672 h.
Series [13] in a line: Toxicity in BALB/c mouse xenografted with human PANC-1 cells assessed as pathological changes in spleen at 20 mg/kg, ip for 4 weeks administered for 5 days consecutively and 2 days without treatment on every week in presence of OL by H and E staining based analysis. The series is classed as organism-based. Particulars: in vivo, 672 h.
Series [14] is described as follows: Toxicity in BALB/c mouse xenografted with human PANC-1 cells assessed as pathological changes in liver at 20 mg/kg, ip for 4 weeks administered for 5 days consecutively and 2 days without treatment on every week in presence of OL by H and E staining based analysis. The series is classed as organism-based. Particulars: in vivo, 672 h.
Series [15] in a line: Toxicity in BALB/c mouse xenografted with human PANC-1 cells assessed as pathological changes in kidney at 20 mg/kg, ip for 4 weeks administered for 5 days consecutively and 2 days without treatment on every week in presence of OL by H and E staining based analysis. Particulars: in vivo, 672 h. The format is organism-based.
In series [16] the test system is PANC-1. Put plainly: Synergistic antiproliferative activity against human PANC-1 cells expressing wild-type BRCA assessed as inhibition of cell viability incubated for 5 days in presence of JQ1 by CCK8 assay. Particulars: time 5.0 day. The format is functional, cell-based.
Series [17] deals with PANC-1. Put plainly: Anti-invasive activity in human PANC-1 cells assessed as increase in invasion inhibition at 2 uM in presence of JQ1 incubated for 48 hrs by Matrigel assay relative to combination of OL/JQ1. The series is classed as functional. The arrangement: scale not given: the % may be the effect or the level left.
Series [18] deals with PANC-1. The series is described as follows: Induction of apoptosis in human PANC-1 cells assessed as increase in Bax level at 2 uM incubated for 48 hrs in presence of JQ1 by Western blot analysis. The format is functional, cell-based.

In the case of `O=C(c1cc(Cc2n[nH]c(=O)c3ccccc23)ccc1F)N1CCN(C(=O)C2CC2)CC1` [OLAPARIB], the CI with BXPC-3 is less than 1.
For `Cc1sc2c(c1C)C(c1ccc(Cl)cc1)=N[C@@H](CC(=O)OC(C)(C)C)c1nnc(C)n1-2`, the result in the series with PANC-1 [1] and with PANC-1 [8] was Active. Moreover, the Activity with PANC-1 [2] was 12.43%; in the series with PANC-1 [3], “Active; Only A Slight Increase Observed”; in the series on PANC-1 [4] it was 2.83%; with PANC-1 [6] it was 21.52%; with PANC-1 [7] it was 26.9%; in series [10], “Toxic”. Besides, the Activity result in series [11], in [12], in [13], in series [14] and in series [15] was “Non-toxic” in each case. Further, in the series with PANC-1 [5], the viability at 0.25 µM was 89.4%. In addition, the inhibition result in the series on PANC-1 [9] is “Active”.
With `O=C1CCC(N2C(=O)c3cccc(NC(=O)CNCCCCCCCCCCC(=O)N4CCN(C(=O)c5cc(Cc6n[nH]c(=O)c7ccccc67)ccc5F)CC4)c3C2=O)C(=O)N1` (centres undefined), in the series on PANC-1 [16], the inhibition entry is “Active”. Further, in the series with PANC-1 [17], the Activity is reported as roughly 11%. For the same compound, in the series on PANC-1 [18], the outcome was Active.
